Where a name gives a salt, the structure may show the parent alone.
Key:
[1] = per one mg of ACTH, based on rat potency testing; cited from earlier work
[2] = system: EAE induced by PLP139-151/CFA Emulsion PTX; details: past experience with this model; cited from earlier work
[3] = system: EAE induced by PLP139-151/CFA Emulsion PTX; assay: EAE prophylactic model, treatment from immunization, with pertussis toxin (Example 5); format: in vivo, mouse; details: 3 mg/kg p.o. daily
Description: The efficacy of the combination of ACTH and β-endorphin was also tested in a prophylactic model of EAE. In contrast with the therapeutic model used above, in which treatment is initiated only after EAE onset and recovery from the first wave of the disease, in the prophylactic model, treatment is initiated at the time of immunization and the mice are followed for only 3 weeks. Additionally, pertussis toxin (PTX) is used as an additional adjuvant in the immunization, producing a more sever first wave of disease with slower recovery.
Mice were injected subcutaneously at four sites in the back with 0.05 mL of the emulsion component of HOOKE KIT™ PLP139-151/CFA Emulsion PTX (catalog number EK-2120; Hooke Laboratories, Lawrence Mass.). Two sites of injection were in the upper back approximately 1 cm caudal of the neck line. The other two sites were in the lower back approximately 2 cm cranial of the base of the tail. Two hours later the pertussis toxin component of the kit was administered intraperitoneally. A 30 ng dose of PTX was used to attain optimal disease severity. Mice were administered vehicle or 128 μg ACTH+64 μg β-endorphin by subcutaneous injection every 2nd day, as a negative control and test treatment, respectively. As reference treatment (positive control) mice received 3 mg/kg FTY720 daily by oral administration. There were 12 mice in each of these three groups. The vehicle and test treatment groups were dosed from Day 0 through Day 18 (the last dose in the test treatment group was 88 μg ACTH+44 μg β-endorphin due to lab mishap). The reference treatment group was dosed from Day 0 through Day 19. Clinical scoring was as presented in Table 4 (above) beginning on Day 7 and continuing through Day 20.

[4] = system: EAE induced in SJL mice by PLP139-151/CFA immunization; assay: EAE therapeutic model repeated with greater doses, FTY720 reference (Example 4); format: in vivo, mouse
Description: To further explore the effect of dosage, the model was repeated, essentially as described in Example 3, using greater doses, specifically 53 μg of ACTH+27 μg of β-endorphin (low dose), and 128 […] of ACTH+64 μg of β-endorphin (high dose). Additionally FTY720 (fingolimod, an FDA-approved drug for the treatment of multiple sclerosis) was used as a reference (positive control) treatment instead of prednisolone, which had not shown strong efficacy in Example 3. FTY720 is one of the most efficacious drugs in both EAE and MS. Immunization was on Day 0, treatment started on Day 20, and the mice were observed through Day 42.
Histological analysis confirmed the clinical findings (Table 9). Histologic readouts were inflammatory foci per section, demyelination (based on anti-myelin basic protein (MBP) staining), and apoptotic cells per section. […] A low number of inflammatory infiltrates confirms absence of both clinical and subclinical inflammation in the CNS. Histological findings in the high dose test group were generally similar to the FTY720 reference group.

[5] = system: EAE induced in SJL mice by PLP139-151/CFA immunization; assay: EAE late therapeutic model of relapsing-remitting multiple sclerosis, treatment from Day 20 (Example 3); format: in vivo, mouse
Description: The effect of administration of two dosages of ACTH and β-endorphin on severity and relapse in EAE was evaluated. EAE was induced in SJL mice by PLP139-151/CFA immunization on Day 0. Treatment was late therapeutic, starting on Day 20 after immunization for each mouse. Mice were observed through the end of the study, Day 42 after immunization. Four groups of 20 mice each received one of the following treatments: vehicle (a negative control); 10 mg/kg oral prednisolone daily (reference treatment); 32 μg ACTH+16 μg endorphin by subcutaneous injection, every 2nd day (low dose); or 64 μg ACTH+32 μg β-endorphin by subcutaneous injection, every 2nd day (high dose).
Mice were injected subcutaneously at four sites in the back with emulsion containing PLP139-151 (native sequence) from HOOKE KIT™ PLP139-151/CFA Emulsion, catalog number EK-0120 (Hooke Laboratories, Lawrence Mass.). Two sites of injection were in the upper back approximately 1 cm caudal of the neck line. The other two sites were in the lower back approximately 2 cm cranial of the base of the tail. The injection volume was 0.05 mL at each site. Even without treatment, most mice recover spontaneously after the first wave of disease. In the SJL model, EAE develops 10-15 days after immunization in 90-100% of immunized mice. The first wave of EAE lasts several days and most mice fully or almost fully recover from this first wave. After a disease-free period, which can last from one day to several months, most mice relapse. During the first 5-7 weeks after immunization, 50-100% of mice will develop a relapse. Each wave of paralysis results in body weight loss at onset, most of which is regained at recovery from the wave. The greatest weight loss is during the first wave of EAE. During the chronic phase of disease, the average EAE body weight is relatively stable, with normal slow increase with age. Since individual mice experience relapses at different times, only a few mice in each group are acutely sick at any given time after the first wave of EAE. Therefore, significant differences in relative body weight between groups are often not found after the first wave of disease in this model. In the vehicle treated group, disease developed as expected for this model. Five (5) mice were euthanized on Day 30 for analysis. Relapse occurred in 7 out of the 15 remaining mice, which were followed to Day 42, with typical course and severity of disease.
100 EAE induced mice were initially considered a single group and were scored daily starting on Day 9 after immunization. […]
Treatment started on the day of group assignment (Day 20 after immunization). […] EAE score was determined daily by a person unaware of both treatment and of previous scores for each mouse. Weight was measured 3 times a week. […]

Which “Potency of ACTH in units” value [1] does the source give for “ACTH: 39 amino acid peptide, adrenocorticotropic hormone (SYSMEHFRWGKPVGKKRRPVKVYPNGAEDESAEAFPLEF; Corticotropin; UniProt P01189 138-176, looked up)” here?
The value was “about 150 units”.

For `COC(=O)/C=C/C(=O)OC` [TECFIDERA®, dimethyl fumarate], which “Complete suppression of development of EAE” value [2] is on record?
Its value is “neither COPAXONE® (glatiramer acetate injection) nor TECFIDERA® (dimethyl fumarate) completely suppressed development of EAE”.

For `CCCCCCCCc1ccc(CCC(N)(CO)CO)cc1` [FTY720, fingolimod], which “End % body weight ± SD” value ([3]; Day 0-19) is on record?
The value was 98.3% ± 7.8%.

What about the “MMS ± SD” value ([3]; Day 0-19) of the same compound?
The value was 0.92 ± 1.16.

And the “End score ± SD” value ([3]; Day 0-19, Day 20)?
The value was 0.79 ± 1.01.

And the “Median day of onset (all mice)” value ([3]; Day 0-19, cannot be calculated if ≤50% of mice developed disease)?
Its value is >20.0^1.

And the “EAE incidence (%)” value ([3]; Day 0 through Day 19, scored through Day 20)?
The value was 41.7%.

And the “Apoptotic cells/section ± SD” value ([4]; 1 mg/kg p.o. QD)?
Its value is 0.3 ± 0.4 cells/section.

And the “Demyelination (anti-MBP) ± SD” value ([4]; 1 mg/kg p.o. QD)?
Its value is 0.1 ± 0.2.

What about the Incidence of relapse ([4]; 1 mg/kg p.o. QD from Day 20) of the same compound?
The Incidence of relapse was 12.5%.

And the “MMS of relapse period ± SD (Days 20-42)” value ([4]; 1 mg/kg p.o. QD from Day 20)?
Its value is 1.94 ± 0.50.

And the “End % body weight ± SD” value ([4]; 1 mg/kg p.o. QD from Day 20, % of starting weight)?
Its value is 97.65 ± 5.3%.

What about the “End score ± SD” value ([4]; 1 mg/kg p.o. QD from Day 20, Day 42) of the same compound?
The value was 1.06 ± 0.62.

And the “Inflammatory foci/section ± SD” value ([4]; 1 mg/kg p.o. QD, spinal cord histology)?
The value was 0.5 ± 0.4 foci/section.

For `C[C@]12C=CC(=O)C=C1CC[C@@H]1[C@@H]2[C@@H](O)C[C@@]2(C)[C@H]1CC[C@]2(O)C(=O)CO` [Prednisolone, prednisolone], which “Change in body weight versus vehicle control (FIG. 2)” value ([5]; 10 mg/kg p.o. daily) is on record?
The value was “statistically significant loss of weight versus the vehicle control”.

What about the “MMS of relapse period ± SD (Days 25-42)” value ([5]; 10 mg/kg p.o. daily from Day 20, mean maximal score) of the same compound?
The value was 2.07.

And the “Iba1 ± SD (% of area)” value ([5]; 10 mg/kg p.o. daily, microglial activation, % of total spinal cord area)?
The value was 4.0 ± 1.2 % of area.

What about the “Mean clinical score over the course of the study (FIG. 1), compared to vehicle” value ([5]; reference treatment 10 mg/kg p.o. daily) of the same compound?
The value was “more moderate benefit”.

— patent publication US11285192B2, “Formulation including a combination of beta-endorphin and adrenocorticotropic hormone” (Adamis Pharmaceuticals Corporation, priority 2019, dated 2022)
